Test system: Subjects With Active Crohn's Disease With Evidence of Mucosal Ulceration
Assay: Study 3 - Alanine Aminotransferase (ALT) levels
Assay type: in vivo, human
Excerpt: Double-Blind, Randomized, Placebo-Controlled, Multi-Centre Study to Investigate the Efficacy and Safety of Compound 1 in Subjects With Active Crohn's Disease With Evidence of Mucosal Ulceration. This is a double-blind, randomized, placebo-controlled, multi-centre Phase 2 study to investigate the efficacy and safety of Compound 1 administered once daily for the treatment of active CD with evidence of mucosal ulceration. The pharmacokinetics (including a PK substudy) and pharmacodynamics of Compound 1 and metabolite in CD will also be characterised. A total of 180 eligible subjects will be randomized to receive Compound 1 or placebo in addition to their stable background treatment (eg, corticosteroids, aminosalicylates, or CD-related antibiotics). The study will consist of 2 parts, with total treatment duration of 20 weeks. Randomization in Part 1 will be stratified according the subject's previous anti-TNF exposure/response, CRP level at Screening, and oral corticosteroid use at visit Day −1. After the first 10 weeks of treatment in Part 1, patients will be re-randomized for Part 2 as shown in the diagram below and will be stratified according to the subject's clinical response, previous anti-TNF exposure/response, and oral corticosteroid use at visit Day -1. [table] ALT levels determination is available at Quest Diagnostics, Clinical Trials, Quest House, 125-135 Staines Road, Hounslow, Middlesex, TW3 3JB, United Kingdom under Catalogue n#84460. ALT catalyzes the exchange of the amino group of alanine with the oxogroup of 2-ketoglutarate to form pyruvate and glutamate. In the presence of lactic dehydrogenase, pyruvate reacts with NADH to form NAD+, measured spectrophotometrically. Guidelines for the ALT value have been issued by the association for Clinical Biochemistry and Laboratory Medicine, 130-132 Tooley Street LONDON SE1 2TU, united Kingdom, wherein the ALT value should be below 34 U/l in Female and below 52 U/L in male.

[1] = 10 weeks results, 200 mg q.d., week 2
[2] = 10 weeks results, 200 mg q.d., week 4
[3] = 10 weeks results, 200 mg q.d., week 6
[4] = 10 weeks results, 200 mg q.d., week 10
[5] = 20 weeks results, 200 mg q.d. week 0 to 10, to 100 mg q.d. week 10 to 20, week 2
[6] = 20 weeks results, 200 mg q.d. week 0 to 10, to 100 mg q.d. week 10 to 20, week 4
[7] = 20 weeks results, 200 mg q.d. week 0 to 10, to 100 mg q.d. week 10 to 20, week 6
[8] = 20 weeks results, 200 mg q.d. week 0 to 10, to 100 mg q.d. week 10 to 20, week 10
[9] = 20 weeks results, 200 mg q.d. week 0 to 10, to 100 mg q.d. week 10 to 20, week 12
[10] = 20 weeks results, 200 mg q.d. week 0 to 10, to 100 mg q.d. week 10 to 20, week 16
[11] = 20 weeks results, 200 mg q.d. week 0 to 10, to 100 mg q.d. week 10 to 20, week 20
[12] = 20 weeks results, 200 mg q.d. week 0 to 10, to placebo week 10 to 20, week 2
[13] = 20 weeks results, 200 mg q.d. week 0 to 10, to placebo week 10 to 20, week 4
[14] = 20 weeks results, 200 mg q.d. week 0 to 10, to placebo week 10 to 20, week 6
[15] = 20 weeks results, 200 mg q.d. week 0 to 10, to placebo week 10 to 20, week 10
[16] = 20 weeks results, 200 mg q.d. week 0 to 10, to placebo week 10 to 20, week 12
[17] = 20 weeks results, 200 mg q.d. week 0 to 10, to placebo week 10 to 20, week 16
[18] = 20 weeks results, 200 mg q.d. week 0 to 10, to placebo week 10 to 20, week 20
[19] = 20 weeks results, continued 200 mg q.d., week 2
[20] = 20 weeks results, continued 200 mg q.d., week 4
[21] = 20 weeks results, continued 200 mg q.d., week 6
[22] = 20 weeks results, continued 200 mg q.d., week 10
[23] = 20 weeks results, continued 200 mg q.d., week 12
[24] = 20 weeks results, continued 200 mg q.d., week 16
[25] = 20 weeks results, continued 200 mg q.d., week 20
[26] = 20 weeks results, placebo week 0 to 10, to 100 mg q.d. week 10 to 20, week 12
[27] = 20 weeks results, placebo week 0 to 10, to 100 mg q.d. week 10 to 20, week 16
[28] = 20 weeks results, placebo week 0 to 10, to 100 mg q.d. week 10 to 20, week 20

O=C(Nc1nc2cccc(-c3ccc(CN4CCS(=O)(=O)CC4)cc3)n2n1)C1CC1 [Compound 1, cyclopropanecarboxylic acid {5-[4-(1,1-dioxo-thiomorpholin-4-ylmethyl)-phenyl]-[1,2,4]triazolo[1,5-a]pyridin-2-yl}-amide]
Study 3 - ALT Mean CFB [1]: 0.0 IU/L | Study 3 - ALT Mean percentage CFB [1]: 8.3% | Study 3 - ALT Mean CFB [2]: −0.6 IU/L | Study 3 - ALT Mean percentage CFB [2]: 5.8% | Study 3 - ALT Mean CFB [3]: −1.2 IU/L | Study 3 - ALT Mean percentage CFB [3]: 3.1% | Study 3 - ALT Mean CFB [4]: 1.6 IU/L | Study 3 - ALT Mean percentage CFB [4]: 24.4% | Study 3 - ALT Mean CFB [5]: −2.03 IU/L | Study 3 - ALT Mean percentage CFB [5]: −4.84% | Study 3 - ALT Mean CFB [6]: −1.93 IU/L | Study 3 - ALT Mean percentage CFB [6]: −3.24% | Study 3 - ALT Mean CFB [7]: −1.60 IU/L | Study 3 - ALT Mean percentage CFB [7]: −0.60% | Study 3 - ALT Mean CFB [8]: −0.50 IU/L | Study 3 - ALT Mean percentage CFB [8]: 5.92% | Study 3 - ALT Mean CFB [9]: 0.03 IU/L | Study 3 - ALT Mean percentage CFB [9]: 3.56% | Study 3 - ALT Mean CFB [10]: 0.21 IU/L | Study 3 - ALT Mean percentage CFB [10]: 8.83% | Study 3 - ALT Mean CFB [11]: 6.15 IU/L | Study 3 - ALT Mean percentage CFB [11]: 38.62% | Study 3 - ALT Mean CFB [12]: −2.30 IU/L | Study 3 - ALT Mean percentage CFB [12]: 3.63% | Study 3 - ALT Mean CFB [13]: −2.04 IU/L | Study 3 - ALT Mean percentage CFB [13]: 8.87% | Study 3 - ALT Mean CFB [14]: −3.78 IU/L | Study 3 - ALT Mean percentage CFB [14]: 1.03% | Study 3 - ALT Mean CFB [15]: −1.48 IU/L | Study 3 - ALT Mean percentage CFB [15]: 12.60% | Study 3 - ALT Mean CFB [16]: 1.48 IU/L | Study 3 - ALT Mean percentage CFB [16]: 16.15% | Study 3 - ALT Mean CFB [17]: 1.90 IU/L | Study 3 - ALT Mean percentage CFB [17]: 23.87% | Study 3 - ALT Mean CFB [18]: −0.38 IU/L | Study 3 - ALT Mean percentage CFB [18]: 17.82% | Study 3 - ALT Mean CFB [19]: 1.46 IU/L | Study 3 - ALT Mean percentage CFB [19]: 14.82% | Study 3 - ALT Mean CFB [20]: 0.36 IU/L | Study 3 - ALT Mean percentage CFB [20]: 8.36% | Study 3 - ALT Mean CFB [21]: −0.17 IU/L | Study 3 - ALT Mean percentage CFB [21]: 5.47% | Study 3 - ALT Mean CFB [22]: 3.75 IU/L | Study 3 - ALT Mean percentage CFB [22]: 38.09% | Study 3 - ALT Mean CFB [23]: 3.00 IU/L | Study 3 - ALT Mean percentage CFB [23]: 26.61% | Study 3 - ALT Mean CFB [24]: 4.04 IU/L | Study 3 - ALT Mean percentage CFB [24]: 33.15% | Study 3 - ALT Mean CFB [25]: 2.53 IU/L | Study 3 - ALT Mean percentage CFB [25]: 22.15% | Study 3 - ALT Mean CFB [26]: −0.55 IU/L | Study 3 - ALT Mean percentage CFB [26]: 10.24% | Study 3 - ALT Mean CFB [27]: −1.95 IU/L | Study 3 - ALT Mean percentage CFB [27]: 2.75% | Study 3 - ALT Mean CFB [28]: −2.05 IU/L | Study 3 - ALT Mean percentage CFB [28]: 4.96%

Source: patent US20180200257A1, “METHODS FOR THE TREATMENT OF INFLAMMATORY DISORDERS” (Galapagos NV, priority 2015, published 2018)
